Like-named read-outs stand apart in the source and are kept apart here.
Experiment: Noncompartmental pharmacokinetic parameters (Cmax, Tmax, AUC, Racc) in QD and BID cohorts of Form B
Type: in vivo, human
Settings: human, plasma, oral
Procedure: Analysis of plasma concentration versus time data for calculation of standard pharmacokinetic (PK) parameters following oral administration was conducted using Phoenix WinNonlin version 6.3 using actual blood sampling times.
The following pharmacokinetic parameters were calculated from the concentration versus time data obtained in Example 1 for each of the above QD (200 mg, 300 mg, 400 mg, 500 mg, or 650 mg dosed) and BID (100 mg, 150 mg, or 200 mg doses) Form B of Compound II dosage cohorts: • Cmax—the observed peak plasma concentration determined from the plasma concentration versus time data obtained on Day 1 and Day 29, as applicable; • Tmax—the time to reach the observed peak plasma concentration from the plasma concentration versus time data obtained on Day 1 and Day 29, as applicable; • AUC—area under the plasma concentration versus time curve during a dosing interval on Day 1 and Day 29, as applicable; and • Racc—accumulation ratio calculated as AUCDay 29/AUCDay 1.

CC(C)N1CCN(c2ccc(Nc3ncc4cc5n(c4n3)C3(CCCCC3)CNC5=O)nc2)CC1 [Compound I, 2′-((5-(4-isopropylpiperazin-1-yl)pyridin-2-yl)amino)-7′,8′-dihydro-6′H-spiro[cyclohexane-1,9′-pyrazino[1′,2′:1,5]pyrrolo[2,3-d]pyrimidin]-6′-one]
Cmax (300 mg, Cohort 2, 300 mg QD of Form B, Day 1, upon exclusion of data for patient that vomited immediately after dosing, read-out: Cmax, Mean): 55.2 ng/mL
AUC(0-t) (300 mg, Cohort 2, 300 mg QD of Form B, Day 1, read-out: AUClast, Mean): 413 ng·h/mL
AUC(0-t) (300 mg, Cohort 2, 300 mg QD of Form B, Day 1, read-out: AUClast, Median): 554 ng·h/mL
Cmax (300 mg, Cohort 2, 300 mg QD of Form B, Day 1, read-out: Cmax, Mean): 40.2 ng/mL
Cmax (300 mg, Cohort 2, 300 mg QD of Form B, Day 1, read-out: Cmax, Median): 44.3 ng/mL
Tmax (300 mg, Cohort 2, 300 mg QD of Form B, Day 1, read-out: Tmax, Mean): 4.67 h
Tmax (300 mg, Cohort 2, 300 mg QD of Form B, Day 1, read-out: Tmax, Median): 4 h
AUC(0-t) (300 mg, Compound I, 300 mg QD of Form B, Cohort 2, Day 29, read-out: AUClast (Mean)): 592 ng·h/mL
AUC(0-t) (300 mg, Compound I, 300 mg QD of Form B, Cohort 2, Day 29, read-out: AUClast (Median)): 604 ng·h/mL
Cmax (300 mg, Compound I, 300 mg QD of Form B, Cohort 2, Day 29, read-out: Cmax (Mean)): 47 ng/mL
Cmax (300 mg, Compound I, 300 mg QD of Form B, Cohort 2, Day 29, read-out: Cmax (Median)): 40.5 ng/mL
Tmax (300 mg, Compound I, 300 mg QD of Form B, Cohort 2, Day 29, read-out: Tmax (Mean)): 6 h
Tmax (300 mg, Compound I, 300 mg QD of Form B, Cohort 2, Day 29, read-out: Tmax (Median)): 4 h
AUC(0-t) (400 mg, Cohort 3, 400 mg QD of Form B, Day 1, read-out: AUClast, Mean): 202 ng·h/mL
AUC(0-t) (400 mg, Cohort 3, 400 mg QD of Form B, Day 1, read-out: AUClast, Median): 183 ng·h/mL
Cmax (400 mg, Cohort 3, 400 mg QD of Form B, Day 1, read-out: Cmax, Mean): 20.1 ng/mL
Cmax (400 mg, Cohort 3, 400 mg QD of Form B, Day 1, read-out: Cmax, Median): 21.6 ng/mL
Tmax (400 mg, Cohort 3, 400 mg QD of Form B, Day 1, read-out: Tmax, Mean): 6 h
Tmax (400 mg, Cohort 3, 400 mg QD of Form B, Day 1, read-out: Tmax, Median): 6 h
AUC(0-t) (400 mg, Compound I, 400 mg QD of Form B, Cohort 3, Day 29, read-out: AUClast (Mean)): 278 ng·h/mL
AUC(0-t) (400 mg, Compound I, 400 mg QD of Form B, Cohort 3, Day 29, read-out: AUClast (Median)): 348 ng·h/mL
Cmax (400 mg, Compound I, 400 mg QD of Form B, Cohort 3, Day 29, read-out: Cmax (Mean)): 19 ng/mL
Cmax (400 mg, Compound I, 400 mg QD of Form B, Cohort 3, Day 29, read-out: Cmax (Median)): 23.5 ng/mL
Tmax (400 mg, Compound I, 400 mg QD of Form B, Cohort 3, Day 29, read-out: Tmax (Mean)): 5.33 h
Tmax (400 mg, Compound I, 400 mg QD of Form B, Cohort 3, Day 29, read-out: Tmax (Median)): 6 h
AUC(0-t) (500 mg, Cohort 4, 500 mg QD of Form B, Day 1, read-out: AUClast, Mean): 577 ng·h/mL
AUC(0-t) (500 mg, Cohort 4, 500 mg QD of Form B, Day 1, read-out: AUClast, Median): 611 ng·h/mL
Cmax (500 mg, Cohort 4, 500 mg QD of Form B, Day 1, read-out: Cmax, Mean): 48.9 ng/mL
Cmax (500 mg, Cohort 4, 500 mg QD of Form B, Day 1, read-out: Cmax, Median): 49.6 ng/mL
Tmax (500 mg, Cohort 4, 500 mg QD of Form B, Day 1, read-out: Tmax, Mean): 5.75 h
Tmax (500 mg, Cohort 4, 500 mg QD of Form B, Day 1, read-out: Tmax, Median): 6 h
AUC(0-t) (500 mg, Compound I, 500 mg QD of Form B, Cohort 4, Day 29, read-out: AUClast (Mean)): 607 ng·h/mL
AUC(0-t) (500 mg, Compound I, 500 mg QD of Form B, Cohort 4, Day 29, read-out: AUClast (Median)): 591 ng·h/mL
Cmax (500 mg, Compound I, 500 mg QD of Form B, Cohort 4, Day 29, read-out: Cmax (Mean)): 43.2 ng/mL
Cmax (500 mg, Compound I, 500 mg QD of Form B, Cohort 4, Day 29, read-out: Cmax (Median)): 45 ng/mL
Tmax (500 mg, Compound I, 500 mg QD of Form B, Cohort 4, Day 29, read-out: Tmax (Mean)): 5.33 h
Tmax (500 mg, Compound I, 500 mg QD of Form B, Cohort 4, Day 29, read-out: Tmax (Median)): 6 h
AUC(0-t) (650 mg, Cohort 5, 650 mg QD of Form B, Day 1, read-out: AUClast, Mean): 799 ng·h/mL
AUC(0-t) (650 mg, Cohort 5, 650 mg QD of Form B, Day 1, read-out: AUClast, Median): 805 ng·h/mL
Cmax (650 mg, Cohort 5, 650 mg QD of Form B, Day 1, read-out: Cmax, Mean): 62.5 ng/mL
Cmax (650 mg, Cohort 5, 650 mg QD of Form B, Day 1, read-out: Cmax, Median): 67 ng/mL
Tmax (650 mg, Cohort 5, 650 mg QD of Form B, Day 1, read-out: Tmax, Mean): 7.67 h
Tmax (650 mg, Cohort 5, 650 mg QD of Form B, Day 1, read-out: Tmax, Median): 8 h
AUC(0-t) (650 mg, Compound I, 650 mg QD of Form B, Cohort 5, Day 29, read-out: AUClast (Mean)): 607 ng·h/mL
AUC(0-t) (650 mg, Compound I, 650 mg QD of Form B, Cohort 5, Day 29, read-out: AUClast (Median)): 591 ng·h/mL
Cmax (650 mg, Compound I, 650 mg QD of Form B, Cohort 5, Day 29, read-out: Cmax (Mean)): 43.2 ng/mL
Cmax (650 mg, Compound I, 650 mg QD of Form B, Cohort 5, Day 29, read-out: Cmax (Median)): 45 ng/mL
Tmax (650 mg, Compound I, 650 mg QD of Form B, Cohort 5, Day 29, read-out: Tmax (Mean)): 5.33 h
Tmax (650 mg, Compound I, 650 mg QD of Form B, Cohort 5, Day 29, read-out: Tmax (Median)): 6 h

From patent US11357779B2 (G1 Therapeutics, Inc., priority 2018, dated 2022)
